# Active and inactive are the calls of the source. No rule for the calls is given here.
# Target: Protein Rev (Human immunodeficiency virus type 1 group M subtype B (isolate HXB2)) (UniProt P04618)
# Experiment: Rev-RRE interaction blockers – biochemical, FRET, dose response, counter-screen for gld-1 inhibitor project, late-stage follow-up (AID 488798)
# Details: FRET Rev-RRE RNA binding
# Protein Rev (Human immunodeficiency virus type 1 group M subtype B (isolate HXB2)), sequence (P04618 whole entry, looked up): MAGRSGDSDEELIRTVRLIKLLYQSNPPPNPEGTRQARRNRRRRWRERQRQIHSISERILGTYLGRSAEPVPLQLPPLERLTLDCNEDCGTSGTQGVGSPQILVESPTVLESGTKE
row,Compound,IC50
1,O=c1[nH]c(=O)c2nc3ccccc3nc2[nH]1,> 75.4 µM (inactive)
2,Cc1ccc(S(=O)(=O)Nc2cc3c(C(=O)Nc4ccccc4)c(C)oc3c3ccccc23)cc1,inactive
3,Cc1ccc(S(=O)(=O)Nc2cc3c(C(=O)Nc4ccccc4)c(C)oc3c3ccccc23)c(C)c1,> 75.4 µM (inactive)
4,COc1ccc(/C=C(\CC(=O)O)c2nc3ccccc3s2)cc1O,> 75.4 µM (inactive)
5,Nc1c(O)ccc2c1C(=O)c1ccccc1C2=O,> 75.4 µM (inactive)
6,CC1=CC(=O)c2c(O)ccc(O)c2C1=O,> 75.4 µM (inactive)
7,O=c1[nH]c2cc3ccccc3cc2nc1C(F)(F)F,inactive
8,O=C(CN1C(=O)NC2(CCCCC2)C1=O)Oc1ccc2c(C(F)(F)F)cc(=O)oc2c1,> 75.4 µM (inactive)
9,O=C1C2=C(SCCS2)C(=O)N1CCCO,> 75.4 µM (inactive)
10,COc1ccc(C=Nc2c(-c3ccco3)nc3ccccn23)cc1OC,> 75.4 µM (inactive)
11,CCN(CC)S(=O)(=O)c1ccc(N2CCCC2)c(NS(=O)(=O)c2ccc(F)cc2)c1,> 75.4 µM (inactive)
12,Nc1ccc2nonc2c1[N+](=O)[O-],> 75.4 µM (inactive)
13,CCOC(=O)c1c(C)oc2c1cc(NS(=O)(=O)c1ccc(C)cc1)c1ccccc12,> 75.4 µM (inactive)
14,CCCCn1c(=O)[nH]c2nc3cc(NC(C)=O)ccc3nc2c1=O,inactive
15,Nc1ccc(O)c2c1C(=O)c1ccccc1C2=O,> 75.4 µM (inactive)

# — PubChem BioAssay AID488798 (The Scripps Research Institute Molecular Screening Center, 2010)
